The results in this text go back to patent US10160748B2 (AbbVie Inc., priority 2015, dated 2018).

Read-outs that look alike come from different tables or passages of the source. Some results are limits rather than exact numbers.

In this assay the target is TNFα trimer (Homo sapiens, UniProt P01375). Briefly: TNFα FP Competitive Binding Assay. The following applies: read-out: TNF IC50. The gist of the method:
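Fluorescence polarization competition: 20 nM TNFα trimer with 1 nM fluorescein-labelled probe in HEPES/NaCl/EDTA/Triton X-100 buffer, compound in 12-point 1:3 dilutions (final top 338 μM or 100 μM). Incubated 18-24 h, background-subtracted mP read, variable-slope dose-response fitting.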

Where [1] appears, read: FP binding assay, 20 nM TNFα trimer, 1 nM OregonGreen488 probe.

TNFα trimer, sequence (P01375 77-233 limits assumed): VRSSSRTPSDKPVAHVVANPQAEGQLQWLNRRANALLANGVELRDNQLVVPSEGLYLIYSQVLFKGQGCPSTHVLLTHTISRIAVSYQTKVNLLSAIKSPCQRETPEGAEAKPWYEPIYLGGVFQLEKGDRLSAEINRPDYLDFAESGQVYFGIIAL

In the case of `Cn1c(=O)c2ccc(-c3cnc(N4CCN5C(=O)NC[C@H]5C4)nc3)cc2n1Cc1cc(Cl)ccc1C(F)(F)F` [Example 29.5], the IC50 under setting [1] was below 1000 nM.

Regarding `Cc1ccc(OC(F)F)c(Cn2c3cc(-c4cnc(N5CCN6C(=O)NC[C@H]6C5)nc4)ccc3c(=O)n2C)n1` [Example 29.6], under setting [1], the IC50 is 1000 to 10000 nM.

Turning to `C[C@H](O)CNc1ccc(Cl)c(Cn2c3cc(-c4cnc(C(C)(C)O)nc4)ccc3c(=O)n2C)c1` [Example 30.1], the IC50 fell in the range of 1000 to 10000 nM.

In the case of `C[C@@H](O)CNc1ccc(Cl)c(Cn2c3cc(-c4cnc(C(C)(C)O)nc4)ccc3c(=O)n2C)c1` [Example 30.2], the concentration for half-maximal inhibition (IC50) lay within 1000 to 10000 nM.

Regarding `C[C@@H]1CN(C(=O)CO)CCN1c1ncc(-c2c(F)cc3c(=O)n(C)n(Cc4ccccc4OC(F)F)c3c2F)cn1` [Example 30], under setting [1], the IC50 was below 1000 nM.

Take `CC(=O)N1CCC(O)(c2ncc(-c3ccc4c(=O)n(C)n(Cc5ccccc5OC(F)F)c4c3)cn2)CC1` [Example 32, 6-(2-(1-Acetyl-4-hydroxypiperidin-4-yl)pyrimidin-5-yl)-1-(2-(difluoromethoxy)benzyl)-2-methyl-1H-indazol-3(2H)-one]: the IC50 under setting [1] was 1000 to 10000 nM.

On to `COCc1cccc(OC(F)F)c1Cn1c2cc(-c3cnc(N4CCN5C(=O)NC[C@@H]5C4)nc3)ccc2c(=O)n1C` [Example 33, (R)-7-(5-(1-(2-(Difluoromethoxy)-6-(methoxymethyl)benzyl)-2-methyl-3-oxo-2,3-dihydro-1H-indazol-6-yl)pyrimidin-2-yl)hexahydroimidazo[1,5-a]pyrazin-3(2H)-one], for which, under setting [1], the IC50 is below 1000 nM.

In the case of `CN1C[C@H]2CN(c3ncc(-c4ccc5c(=O)n(C)n(Cc6ccccc6OC(F)F)c5c4)cn3)CCN2C1=O` [Example 34, (R)-7-(5-(1-(2-(Difluoromethoxy)benzyl)-2-methyl-3-oxo-2,3-dihydro-1H-indazol-6-yl)pyrimidin-2-yl)-2-methylhexahydroimidazo[1,5-a]pyrazin-3(2H)-one], under setting [1], the IC50 was below 1000 nM.

Consider `Cn1c(=O)c2ccc(-c3cnc(N4CCN5C(=O)N(CCO)C[C@H]5C4)nc3)cc2n1Cc1ccccc1OC(F)F` [Example 35, (R)-7-(5-(1-(2-(Difluoromethoxy)benzyl)-2-methyl-3-oxo-2,3-dihydro-1H-indazol-6-yl)pyrimidin-2-yl)-2-(2-hydroxyethyl)hexahydroimidazo[1,5-a]pyrazin-3(2H)-one], for which, under setting [1], the IC50 is below 1000 nM.

For the compound `Cc1ccc(OC(F)F)c(Cn2c3cc(-c4cnc(N5CCN(C(=O)CO)[C@@H](C)C5)nc4)ccc3c(=O)n2C)c1` [Example 36, (S)-1-(2-(Difluoromethoxy)-5-methylbenzyl)-6-(2-(4-(2-hydroxyacetyl)-3-methylpiperazin-1-yl)pyrimidin-5-yl)-2-methyl-1H-indazol-3(2H)-one], under setting [1], the IC50 was below 1000 nM.

Take `Cc1ccc(C#N)c(Cn2c3cc(-c4cnc(N5CCN6C(=O)NC[C@H]6C5)nc4)ccc3c(=O)n2C)c1` [Example 37, (S)-4-Methyl-2-((2-methyl-3-oxo-6-(2-(3-oxohexahydroimidazo[1,5-a]pyrazin-7(1H)-yl)pyrimidin-5-yl)-2,3-dihydro-1H-indazol-1-yl)methyl)benzonitrile]: the IC50 under setting [1] lay in the range of 1000 to 10000 nM.

In the case of `C[C@@H]1CN(c2ncc(-c3ccc4c(=O)n(C)n(Cc5ccccc5OC(F)F)c4c3)cn2)CCN1C(=O)[C@@H]1COC(C)(C)O1` [Example 38* Step 1, 1-(2-(Difluoromethoxy)benzyl)-6-(2-((R)-4-((S)-2,2-dimethyl-1,3-dioxolane-4-carbonyl)-3-methylpiperazin-1-yl)pyrimidin-5-yl)-2-methyl-1H-indazol-3(2H)-one], under setting [1], the IC50 was below 1000 nM.

Consider `C[C@@H]1CN(c2ncc(-c3ccc4c(=O)n(C)n(Cc5ccccc5OC(F)F)c4c3)cn2)CCN1C(=O)[C@@H](O)CO` [Example 38, 1-(2-(Difluoromethoxy)benzyl)-6-(2-((R)-4-((S)-2,3-dihydroxypropanoyl)-3-methylpiperazin-1-yl)pyrimidin-5-yl)-2-methyl-1H-indazol-3(2H)-one], for which the 50% inhibitory concentration (IC50) under setting [1] was below 1000 nM.

In general, IC50 refers to the concentration that gives 50% inhibition.
